Results taken from US7732440B2, “Phenothiazin derivatives, method for the production thereof and use thereof as pharmaceuticals” (Sanofi-Aventis, priority 2007, dated 2010).

Target: T1, Human glucokinase (Homo sapiens, UniProt P35557)
T1 construct: the glucokinase polypeptide beginning with Ser-6 is obtained; GST (N, cleaved yes); made in house; host or cells: E. coli BL21
T1 sequence (P35557 6-464 isoform P35557-3 limits assumed): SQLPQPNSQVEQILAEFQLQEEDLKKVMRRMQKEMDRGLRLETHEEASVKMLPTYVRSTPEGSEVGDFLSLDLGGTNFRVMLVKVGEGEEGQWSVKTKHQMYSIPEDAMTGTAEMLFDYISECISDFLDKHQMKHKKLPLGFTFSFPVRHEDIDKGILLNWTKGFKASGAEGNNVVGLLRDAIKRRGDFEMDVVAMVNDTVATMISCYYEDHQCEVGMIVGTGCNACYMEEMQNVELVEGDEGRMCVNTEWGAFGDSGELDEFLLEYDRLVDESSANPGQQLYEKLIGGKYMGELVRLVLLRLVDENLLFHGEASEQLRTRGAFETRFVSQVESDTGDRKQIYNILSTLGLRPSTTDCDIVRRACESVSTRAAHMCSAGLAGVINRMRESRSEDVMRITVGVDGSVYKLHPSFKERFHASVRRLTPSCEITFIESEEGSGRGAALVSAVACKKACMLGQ
Experiment: Enzymatic test of glucokinase activators (coupled optical test)
Assay type: biochemical
Conditions: 5 mM glucose; for Concentration raising glucokinase activity by 50% (EC150): concentration of test compound which increases the enzymatic activity by 50% (0 μM = 100%), 25° C., 1 mM ATP, pH 7; for Fold induction: maximum fold stimulation: highest change in extinction in the concentration range 0.1-100 μM relative to change without test substance
Text: Enzymatic Test of Glucokinase Activators
Human glucokinase is expressed as a fusion protein with glutathione S-transferase (GST) in E. coli BI21 and purified by affinity chromatography. […] is cleaved off by digestion with factor Xa, and the glucokinase polypeptide beginning with Ser-6 is obtained. The latter is purified chromatographically. At room temperature, a typical glucokinase preparation has a specific activity of 30 U/mg protein.
The activity of glucokinase and the effect of compounds on this activity are determined by a coupled optical test at 25° C. The test volume is 100 μl. The test composition is: 25 mM HEPES/NaOH (Merck; #110110) pH 7, 25 mM KCl (Merck; #04933), 2 mM MgCl2 (Merck; #05833), 1 mM dithiothreitol (Merck; #112013), 1 mM NAD (Sigma; #N1511), 5 mM glucose (Merck; #108337), 1 mM ATP (Sigma; #A2383), 0.1% (w/v) bovine serum albumin (Merck; #112018), 0.002 U glucokinase preparation and 3.2 U glucose 6-phosphate dehydrogenase (Sigma; #G8529). The mixture furthermore contains a test compound. The test compounds are in each case dissolved in 10 mM DMSO and are tested at final concentrations of 0 μM, 0.1 μM, 0.3 μM, 1 μM, 3 μM, 10 μM, 30 μM and 100 μM. The final concentration of DMSO in the test is 1% (v/v). The reaction is started by addition of ATP. The absorption of the mixture at 340 nm is determined immediately after the addition of ATP and then 25 min later using a multiwell plate photometer (from Labsystems, Multiskan Ascent). The change of the absorption during this period is calculated.
The crude data of the changes in extinction are transferred into a Microsoft Excel file. The value for 0 μM test compound is assigned to be 100%. Dose/activity curves are calculated using the program XL.Fit according to the instructions of the manufacturer (IDBS). The concentration of a test compound which increases the enzymatic activity by 50% is defined as EC150. The maximum fold stimulation corresponds to the ratio of the highest change in extinction in the concentration range of a test compound to the change of the absorption without test substance.

CN1c2ccccc2S(=O)(=O)c2ccc(C(CC3CCOCC3)C(=O)Nc3nccs3)cc21 (centres unmarked) [Example 1, 2-(10-Methyl-5,5-dioxo-5,10-dihydrophenothiazin-2-yl)-3-(tetrahydropyran-4-yl)-N-thiazol-2-ylpropionamide]
Concentration raising glucokinase activity by 50% (EC150): 4200 nM
Fold induction: 2.0

CN1c2ccccc2S(=O)(=O)c2ccc(C(CC3CCOCC3)C(=O)Nc3ccn(C)n3)cc21 (centres unmarked) [Example 5, 2-(10-Methyl-5,5-dioxo-5,10-dihydrophenothiazin-2-yl)-N-(1-methyl-1H-pyrazol-3-yl)-3-(tetrahydropyran-4-yl)propionamide]
Concentration raising glucokinase activity by 50% (EC150): 2100 nM
Fold induction: 4.4

Cc1ccc(NC(=O)C(CC2CCOCC2)c2ccc3c(c2)N(C)c2ccccc2S3(=O)=O)nn1 (centres unmarked) [Example 6, 2-(10-Methyl-5,5-dioxo-5,10-dihydrophenothiazin-2-yl)-N-(6-methylpyridazin-3-yl)-3-(tetrahydropyran-4-yl)propionamide]
Concentration raising glucokinase activity by 50% (EC150): 15500 nM
Fold induction: 2.1

CN1c2ccccc2S(=O)(=O)c2ccc(C(CC3CCCC3)C(=O)Nc3nccs3)cc21 (centres unmarked) [Example 9, 3-Cyclopentyl-2-(10-methyl-5,5-dioxo-5,10-dihydrophenothiazin-2-yl)-N-thiazol-2-yl-propionamide]
Concentration raising glucokinase activity by 50% (EC150): 2200 nM
Fold induction: 2.8

COc1ccc2nc(NC(=O)C(CC3CCOCC3)c3ccc4c(c3)N(C)c3ccccc3S4(=O)=O)sc2n1 (centres unmarked) [Example 15, N-(5-Methoxy-thiazolo[5,4-b]pyridin-2-yl)-2-(10-methyl-5,5-dioxo-5,10-dihydrophenothiazin-2-yl)-3-(tetrahydropyran-4-yl)propionamide]
Concentration raising glucokinase activity by 50% (EC150): 900 nM
Fold induction: 5.0

CN1c2ccccc2S(=O)(=O)c2ccc(C(CC3CCC(=O)CC3)C(=O)Nc3ccn(C)n3)cc21 (centres unmarked) [Example 36, 2-(10-Methyl-5,5-dioxo-5,10-dihydrophenothiazin-2-yl)-N-(1-methyl-1H-pyrazol-3-yl)-3-(4-oxocyclohexyl)propionamide]
Concentration raising glucokinase activity by 50% (EC150): 500 nM
Fold induction: 4.0

COc1ccc2nc(NC(=O)C(C[C@H]3CCC(=O)C3)c3ccc4c(c3)N(C)c3ccccc3S4(=O)=O)sc2n1 (stereo partly drawn) [Example 41, N-(5-Methoxythiazolo[5,4-b]pyridin-2-yl)-2-(10-methyl-5,5-dioxo-5,10-dihydrophenothiazin-2-yl)-3-((R)-3-oxocyclopentyl)propionamide]
Concentration raising glucokinase activity by 50% (EC150): 700 nM
Fold induction: 3.9

CCOC(=O)c1ccc2c(c1)S(=O)(=O)c1ccc(C(CC3CCC(=O)C3)C(=O)Nc3ccn(C)n3)cc1N2C (centres unmarked) [Example 42, Ethyl 10-methyl-8-[1-(1-methyl-1H-pyrazol-3-ylcarbamoyl)-2-(3-oxocyclopentyl)-ethyl]-5,5-dioxo-5,10-dihydrophenothiazine-3-carboxylate]
Concentration raising glucokinase activity by 50% (EC150): 1200 nM
Fold induction: 3.6

Cn1ccc(NC(=O)C(C[C@H]2CCC(=O)C2)c2ccc3c(c2)Nc2ccccc2S3(=O)=O)n1 (stereo partly drawn) [Example 46, 2-(5,5-Dioxo-5,10-dihydrophenothiazin-2-yl)-N-(1-methyl-1H-pyrazol-3-yl)-3-((R)-3-oxocyclopentyl)propionamide]
Concentration raising glucokinase activity by 50% (EC150): 600 nM
Fold induction: 5.0

Cn1ccc(NC(=O)C(CC2CC=C(F)CC2)c2ccc3c(c2)Nc2ccccc2S3(=O)=O)n1 (centres unmarked) [Example 54, 2-(5,5-Dioxo-5,10-dihydrophenothiazin-2-yl)-3-(4-fluorocyclohex-3-enyl)-N-(1-methyl-1H-pyrazol-3-yl)propionamide]
Concentration raising glucokinase activity by 50% (EC150): 1000 nM
Fold induction: 4.5
